pIC50: −log10 of the molar value. Where a name gives a salt, the structure may show the parent alone. Bounds are passed on as bounds.

One series addresses T1, NMDA-receptor subtype 2B (Rattus norvegicus, UniProt P35439+Q00960).
T1 construct: Membranes were prepared by homogenization of the whole brain minus cerebellum and medulla oblongata; from tissue; host or cells: rat whole brain minus cerebellum and medulla oblongata (membranes)
The series can be described thus: 3H-Ro 25-6981 binding (displacement). As to conditions: displacement of 5 nM 3H-Ro 25-6981 from rat brain membranes (whole brain minus cerebellum and medulla oblongata), 2 hours at 4° C., Tris-HCl 50 mM pH 7.4. As for the experimental part:
^3H-Ro 25-6981 binding (Ro 25-6981 is [R—(R*,S*)]-α-(4-Hydroxy-phenyl)-β-methyl-4-(phenyl-methyl)-1-piperidine propanol)
Male Füllinsdorf albino rats weighing between 150–200 g were used. Membranes were prepared by homogenization of the whole brain minus cerebellum and medulla oblongata with a Polytron (10.000 rpm, 30 seconds), in 25 volumes of a cold Tris-HCl 50 mM, EDTA 10 mM, pH 7.1 buffer. The homogenate was centrifuged at 48,000 g for 10 minutes at 4° C. The pellet was resuspended using the Polytron in the same volume of buffer and the homogenate was incubated at 37° C. for 10 minutes. After centrifugation the pellet was homogenized in the same buffer and frozen at −80° C. for at least 16 hours but not more than 10 days. For the binding assay the homogenate was thawed at 37° C., centrifuged and the pellet was washed three times as above in a Tris-HCl 5 mM, pH 7.4 cold buffer. The final pellet was resuspended in the same buffer and used at a final concentration of […].
^3H-Ro 25-6981 binding experiments were performed using a Tris-HCl 50 mM, pH 7.4 buffer. For displacement experiments 5 nM of ^3H-Ro 25-6981 were used and non specific binding was measured using 10 mM of tetrahydroisoquinoline and usually it accounts for 10% of the total. The incubation time was 2 hours at 4° C. and the assay was stopped by filtration on Whatmann GF/B glass fiber filters (Unifilter-96, Packard, Zürich, Switzerland). The filters were washed 5 times with cold buffer. The radioactivity on the filter was counted on a Packard Top-count microplate scintillation counter after addition of […] of microscint 40 (Canberra Packard S. A., Zürich, Switzerland).
The above procedure was performed to determine data for calculation of an IC50 value. The IC50 value is a concentration expressed in micromoles (μM) for a test compound at which 50% of the ligand (in this determination, ^3H-Ro 25-6981) bonded to the receptor is displaced. The binding ability of the compounds of the invention was measured in vitro using a minimum of 10 concentrations and repeated at least once. The specific binding at each concentration was then calculated as the % of the maximum specific binding (100%) obtained in the same experiment, in the absence of a test compound. Competitive displacement of ^3H-Ro 25-6981 was observed, with complete displacement of the radioligand from specific binding sites (usually about 0% of specific binding at the highest concentrations tested). An IC50 value was then calculated with all the ten datapoints (% of specific bound) by plotting the data on a semilogarithmic scale with a sigmoidal fit (Log of the molar concentration on X-axis vs. % of specific bound on the Y-axis) using Microsoft Excel fit software or Microcal Origin software. The pooled normalized values were analyzed using a non-linear regression calculation program which provide IC50 with their relative upper and lower 95% confidence limits.

T1 sequence (Q00960 27-1482, other chains not shown): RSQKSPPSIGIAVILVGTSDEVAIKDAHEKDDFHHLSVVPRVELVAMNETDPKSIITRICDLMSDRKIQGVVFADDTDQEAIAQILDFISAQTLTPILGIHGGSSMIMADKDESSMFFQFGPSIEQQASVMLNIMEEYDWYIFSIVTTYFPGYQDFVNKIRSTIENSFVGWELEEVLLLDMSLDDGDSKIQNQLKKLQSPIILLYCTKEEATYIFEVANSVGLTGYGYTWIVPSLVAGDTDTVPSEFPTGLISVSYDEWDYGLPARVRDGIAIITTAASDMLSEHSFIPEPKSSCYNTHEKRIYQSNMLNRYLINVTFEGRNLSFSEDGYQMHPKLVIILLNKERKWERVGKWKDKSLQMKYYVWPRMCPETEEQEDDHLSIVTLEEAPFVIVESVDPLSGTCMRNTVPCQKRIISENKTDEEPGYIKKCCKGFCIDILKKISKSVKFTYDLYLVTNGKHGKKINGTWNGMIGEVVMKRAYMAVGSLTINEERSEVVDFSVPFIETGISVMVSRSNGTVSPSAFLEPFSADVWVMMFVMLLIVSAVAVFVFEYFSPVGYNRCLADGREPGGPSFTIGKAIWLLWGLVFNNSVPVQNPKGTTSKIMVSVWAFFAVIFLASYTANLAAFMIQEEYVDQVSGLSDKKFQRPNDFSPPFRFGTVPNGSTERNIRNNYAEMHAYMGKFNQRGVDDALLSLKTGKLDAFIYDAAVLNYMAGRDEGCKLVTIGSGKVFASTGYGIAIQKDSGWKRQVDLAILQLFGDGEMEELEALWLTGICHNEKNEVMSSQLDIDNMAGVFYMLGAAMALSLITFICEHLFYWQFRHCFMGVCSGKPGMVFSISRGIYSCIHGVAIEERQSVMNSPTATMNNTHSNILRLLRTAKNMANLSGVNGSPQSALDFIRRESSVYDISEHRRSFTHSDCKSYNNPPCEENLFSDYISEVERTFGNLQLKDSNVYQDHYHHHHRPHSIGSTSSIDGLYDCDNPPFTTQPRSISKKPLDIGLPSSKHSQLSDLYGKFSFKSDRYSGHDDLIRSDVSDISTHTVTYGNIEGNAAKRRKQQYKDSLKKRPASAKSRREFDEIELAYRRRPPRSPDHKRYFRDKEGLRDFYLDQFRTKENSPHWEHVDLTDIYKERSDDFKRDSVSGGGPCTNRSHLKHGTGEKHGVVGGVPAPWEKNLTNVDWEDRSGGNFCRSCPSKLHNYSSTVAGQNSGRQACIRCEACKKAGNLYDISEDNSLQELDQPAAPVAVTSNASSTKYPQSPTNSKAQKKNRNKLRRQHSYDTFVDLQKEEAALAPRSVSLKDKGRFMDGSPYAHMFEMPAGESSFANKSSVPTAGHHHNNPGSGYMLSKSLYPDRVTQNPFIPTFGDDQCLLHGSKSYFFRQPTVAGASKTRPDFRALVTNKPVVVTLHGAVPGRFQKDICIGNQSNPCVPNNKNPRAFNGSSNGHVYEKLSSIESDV

Usually melting point stands for the temperature, or range, at which the solid turns liquid. Turning to `Cl.Nc1cccc(C=Cc2cccc(F)c2)n1`, the melting point is more than 250 °C.

In turn, `CNc1cccc(/C=C/c2ccccc2)n1.Cl` returned a melting point of 157 to 158 °C.

`Cc1ccc(C=Cc2cccc(N)n2)cc1.Cl` displayed a melting point of more than 250 °C.

Consider `Nc1cccc(C2=Cc3ccccc3CC2)n1.O=C(O)/C=C/C(=O)O`, for which the melting point was in the range of 153 to 154 °C.

As for `Cc1cc(N)nc(C2=Cc3ccccc3CC2)c1.O=C(O)/C=C/C(=O)O`, the melting point lay within 142 to 143 °C.

As for `Nc1cc(CO)nc(C2=Cc3ccccc3CC2)c1.O=C(O)/C=C/C(=O)O`, the melting point was 113 °C (dec.).

The molecule `Nc1ccnc(C2=Cc3ccsc3CC2)c1.O=C(O)/C=C/C(=O)O` registered a melting point of 199 to 200 °C.

The molecule `COc1ccc(C=Cc2cccc(N)n2)cc1.Cl` yielded a melting point of 224 to 226 °C.

In turn, `COc1cccc2c1CCC(c1cc(N)ccn1)=C2.O=C(O)/C=C/C(=O)O` yielded a melting point of 207 to 208 °C.

For the molecule `Cc1ccc(C)c2c1C=C(c1cc(N)ccn1)CC2.O=C(O)/C=C/C(=O)O`, the melting point lay within 232 to 233 °C.

Molecule `COc1ccc2c(c1)C=C(c1cc(N)ccn1)CC2.O=C(O)/C=C/C(=O)O` had a melting point of 193 to 194 °C.

As for `Cc1cnc(C2=Cc3cc(Cl)ccc3CC2)cc1N.O=C(O)/C=C/C(=O)O`, the melting point was more than 250 °C.

With `Cl.Nc1cccc(C=Cc2ccc(Cl)cc2)n1`, the melting point was more than 250 °C.

Regarding `Cc1cnc(C2=Cc3ccsc3CC2)cc1N.O=C(O)/C=C/C(=O)O`, the melting point is 218 to 219 °C.

`Cl.Nc1cccc(C=Cc2ccc(Cl)c(Cl)c2)n1` registered a melting point of more than 250 °C.

Molecule `Cl.Nc1cccc(C=Cc2ccc(F)cc2)n1` had a melting point of more than 250 °C.

Regarding `Cl.Nc1cccc(C=Cc2cccc(Cl)c2)n1`, the melting point was 248 to 249 °C.

Regarding `Cl.Nc1cccc(C=Cc2ccccc2F)n1`, the melting point is more than 250 °C.

As to `Cl.Nc1cccc(C=Cc2cccc(C(F)(F)F)c2)n1`, the melting point fell in the range of 222 to 223 °C.

In turn, `CC1CC(c2cc(N)ccn2)=Cc2ccccc21.O=C(O)/C=C/C(=O)O` (racemic) displayed a melting point of 176 to 177 °C.

On to `Cc1cc(N)cc(C2=Cc3ccccc3C(C)C2)n1.O=C(O)/C=C/C(=O)O` (racemic), for which the melting point was 183 to 185 °C (dec.).

Take `Cc1cnc(C2=Cc3ccccc3C(C)C2)cc1N.O=C(O)/C=C/C(=O)O` (racemic): the melting point lay in the range of 210 to 211 °C.

Regarding `Nc1cccc(C=Cc2ccc(O)cc2)n1` [Example 11, 4-[2-(6-Amino-pyridin-2-yl)-vinyl]-phenol], the melting point lay in the range of 224 to 225 °C.

As usually defined, the pIC50 is the negative decadic logarithm of the IC50, by convention in mol/L. Lower therefore signals a large IC50. `Cc1cc(/C=C/c2ccccc2)cc(N)n1` [Example 13, trans-6-Methyl-4-styryl-pyridin-2-yl-amine]: the melting point is 149 to 150 °C. Also, the pIC50 at NMDA-receptor subtype 2B is 7.52.

`Cc1cc(N)nc(/C=C/c2ccccc2)c1.Cl` [Example 14, trans-4-Methyl-6-styryl-pyridin-2-yl-amine hydrochloride]: the melting point was more than 250 °C. The same molecule gave a pIC50 at NMDA-receptor subtype 2B of 8.00.

With `Nc1ccc(/C=C/c2ccccc2)nc1` [Example 15, trans-6-Styryl-pyridin-3-yl-amine], the melting point was in the range of 159 to 160 °C.

`Nc1ccnc(/C=C/c2ccccc2)c1` [Example 16, trans-2-Styryl-pyridin-4-yl-amine] yielded a melting point of 164 to 165 °C. The molecule also had a pIC50 at NMDA-receptor subtype 2B of 7.40.

As to `Cl.NCc1cccc(/C=C/c2ccccc2)n1` [Example 18, trans-C-(6-Styryl-pyridin-2-yl)-methylamine hydrochloride], the melting point is 170 °C (dec.). The molecule also gave a pIC50 at NMDA-receptor subtype 2B of 7.10.

`Cl.Nc1ccnc(C2=Cc3ccccc3CC2)c1` [Example 19, 2-(3,4-Dihydro-naphthalen-2-yl)-pyridin-4-yl-amine hydrochloride] showed a melting point of 231 to 232 °C. The negative logarithm of the IC50 (pIC50) on NMDA-receptor subtype 2B was 7.74.

`Cc1cc(N)cc(C2=Cc3ccccc3CC2)n1.O=C(O)/C=C/C(=O)O` [Example 22, 2-(3,4-Dihydro-naphthalen-2-yl)-6-methyl-pyridin-4-yl-amine fumarate] returned a melting point of 202 to 203 °C. On NMDA-receptor subtype 2B, the pIC50 is 7.49.

Regarding `Cc1cnc(C2=Cc3ccccc3CC2)cc1N.O=C(O)/C=C/C(=O)O` [Example 24, 2-(3,4-Dihydro-naphthalen-2-yl)-5-methyl-pyridin-4-yl-amine fumarate], the melting point is > 200 °C (dec.). Further, at NMDA-receptor subtype 2B, the negative logarithm of the IC50 (pIC50) is 7.96.

Molecule `Cc1c(N)ccnc1C1=Cc2ccccc2CC1` [Example 25, 2-(3,4-Dihydro-naphthalen-2-yl)-3-methyl-pyridin-4-yl-amine] came in with a melting point of 87 to 88 °C.

For the molecule `CCc1cc(N)cc(C2=Cc3ccccc3CC2)n1.O=C(O)/C=C/C(=O)O` [Example 26, 2-(3,4-Dihydro-naphthalen-2-yl)-6-ethyl-pyridin-4-yl-amine fumarate], the melting point was > 230 °C (dec.). Further, the negative-log IC50 (pIC50) at NMDA-receptor subtype 2B is 7.42.

Molecule `CNc1ccnc(C2=Cc3ccccc3CC2)c1.O=C(O)/C=C/C(=O)O` [Example 27, [2-(3,4-Dihydro-naphthalen-2-yl)-pyridin-4-yl]-methyl-amine fumarate] came in with a melting point of 106 to 107 °C. Also, the pIC50 at NMDA-receptor subtype 2B was 7.28.

As for `Cl.NCc1cccc(C2=Cc3ccccc3CC2)n1` [Example 28, C-[6-(3,4-Dihydro-naphthalen-2-yl)-pyridin-2-yl]-methylamine hydrochloride], the melting point lay in the range of 203 to 204 °C. The molecule also had a pIC50 on NMDA-receptor subtype 2B of 7.42.

`Nc1ccnc(C2=Cc3cc(Cl)ccc3CC2)c1` [Example 30, 2-(7-Chloro-3,4-dihydro-naphthalen-2-yl)-pyridin-4-ylamine fumarate] showed a pIC50 at NMDA-receptor subtype 2B of 7.70.

The molecule `Cc1cc(C)c2c(c1)C=C(c1cc(N)ccn1)CC2.O=C(O)/C=C/C(=O)O` [Example 34, 2-(5,7-Dimethyl-3,4-dihydro-naphthalen-2-yl)-pyridin-4-yl-amine fumarate] came in with a melting point of 231 to 232 °C. The molecule also showed a pIC50 on NMDA-receptor subtype 2B of 7.24.

As for `CCc1cc(N)cc(C2=Cc3cc(Cl)ccc3CC2)n1.O=C(O)/C=C/C(=O)O` [Example 36, 2-(7-Chloro-3,4-dihydro-naphthalen-2-yl)-6-ethyl-pyridin-4-yl-amine fumarate], the melting point fell in the range of 232 to 233 °C. The pIC50 at NMDA-receptor subtype 2B was 7.64.

As to `Cc1cc(N)cc(C2=Cc3cc(Cl)ccc3CC2)n1.O=C(O)/C=C/C(=O)O` [Example 37, 2-(7-Chloro-3,4-dihydro-naphthalen-2-yl)-6-methyl-pyridin-4-yl-amine fumarate], the melting point was in the range of 232 to 233 °C. Moreover, the pIC50 at NMDA-receptor subtype 2B was 7.09.

Values taken from patent US7034044B2, “Conjugated aromatic compounds with a pyridine substituent” (Hoffmann-La Roche Inc., priority 2001, dated 2006).
